Experimental data reported in patent US9399631B2, “Polyphenol proteasome inhibitors, synthesis, and methods of use” (UNIVERSITY OF SOUTH FLORIDA, priority 2003, dated 2016).

Experiments:
Format in all cases: cell-based, human
Jurkat T cells = test: Western blot of proteasome target proteins in Jurkat T cells; details: for increase of IκB-α protein levels: at 6 hours
Description: (§1) Cell Culture, Cell Extract Preparation, and Western Blot Assay. Human leukemia Jurkat T and prostate cancer LNCaP cells were cultured in RPMI 1640 medium supplemented with 10% fetal calf serum, 100 units/ml of penicillin, and 100 μg/ml streptomycin. Human immortalized, non-transformed NK cells (YT cell line) (38) were cultured in RPMI 1640 supplemented with 1 mM MEM sodium pyruvate solution, 0.1 mM MEM non-essential amino acids solution, 10% fetal calf serum. 100 units/ml penicillin, and 100 μg/ml streptomycin. Normal (WI-38) and simian virus 40 (SV40)-transformed (VA-13) human fibroblasts were grown in Dulbecco's modified Eagle's medium supplemented with 10% fetal calf serum, 100 units/ml of penicillin and 100 μg/ml of streptomycin. All cells were maintained at 37° C. in a humidified incubator with an atmosphere of 5% CO2. A whole cell extract was prepared in accordance with An et al. (An, B. et al. Cell Death Differ, 1998, 5:1062-75). Briefly, cells were harvested, washed with PBS twice, and homogenized in a lysis buffer [50 mM Tris-HCl (pH 8.0), 5 mM EDTA, 150 mM NaCl, 0.5% NP-40, 0.5 mM phenylmethylsulfonyl fluoride, and 0.5 mM dithiothreitol] for 30 min at 4° C. Afterwards, lysates were centrifuged at 12,000×g for 15 min at 4° C., and the supernatants were collected as whole cell extracts. Equal amounts of protein extract (60 μg) were resolved by SDS-polyacrylamide gel electrophoresis and transferred to a nitrocellulose membrane using a Semi-Dry Transfer system (BIO-RAD, Hercules, Calif.). Jurkat T, LNCaP, or DU-145 cells were treated with various concentrations of synthetic or natural tea polyphenols for indicted hours. The enhanced chemiluminescence (ECL) Western blot analysis was then performed using specific antibodies to the proteins of interest (p^27kip, IκB-α, PARP, Bax or actin). The ratio of p27 or IκB-α to the corresponding actin was determined by scanning intensities of the protein bands.
Immortalized, non-transformed normal natural killer (NK) cells (YT line) (Drexler, H. G. et al. Leuk Res, 2000, 24:881-911) and human leukemic Jurkat T cells (as a control) were treated with either (−)-EGCG (as a comparison) or (−)-EGCG-amide for up to 12 hour. […] In contrast, IκB-α expression in non-transformed NK cells was unchanged during each treatment, although the basal level (and the mobility) of IκB-α protein was higher in NK cells (FIGS. 13A and 13B).
Having discovered that the synthetic GTP analogs are potent and specific inhibitors of the proteasomal chymotrypsin-like activity in vitro (FIGS. 16A, 17A, 17B, and 17C), it was then determined whether the synthetic compounds could also be effective in inhibiting intact tumor cell proteasome activity. Because inhibition of the proteasome activity in tumor cells would result in increased levels of proteasome target proteins, levels of p27 and IκB-α proteins were measured by Western blot assay in Jurkat T cells treated with each GTP. After a 12 hour treatment, (+)-EGCG at 10 μM accumulated p27 and IκB-α levels by 3.5- and 3.1-fold, respectively (FIG. 18A). In comparison, the natural (−)-EGCG accumulated p27 and IκB-α, to a slightly lesser extent, by 2.7- and 2.1-fold, respectively (FIG. 18A). In addition, synthetic (+)-GCG increased p27 and IκB-α levels by 3.7- and 3.3-fold, respectively, similar to the results from (−)-GCG treatment (FIG. 18A).

LNCaP cells = test: Soft agar colony formation assay; details: 10 μM, 14 day-incubation
Procedure, shortened: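 2×10^4 human prostate cancer cells seeded in 0.3% top agar over a 0.6% agar layer (DMEM, 10% FBS) together with analogs at 50 μM or 10 μM, or solvent control. Incubated 14 days at 37 °C, 5% CO2, then stained overnight with MTT (1 mg/ml). Colonies counted; means of triplicate independent experiments ± SD.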

VA-13 cells = test: Western blot of p27 in SV40-transformed VA-13 fibroblasts; details: 25 μM
Description: as §1
Normal WI-38 and SV40-transformed VA-13 cell lines were treated with 25 μM of (−)-EGCG, (−)-EGCG-amide, (+)-EGCG, (+)-EGCG-amide, or GTP-1 for either 12 hours or 36 hours.

## O=C(OC1Cc2c(O)cc(O)cc2OC1c1cc(O)c(O)c(O)c1)c1cc(O)c(O)c(O)c1 (single isomer, unassigned; (+)) [(+)-GCG]
Jurkat T cells; 10 μM, 12 hour treatment
  accumulation of IκB-α levels: 3.3 fold
  accumulation of p27 levels: 3.7 fold
LNCaP cells; Homo sapiens, LNCaP, 336 h
  inhibition at 10 µM: 91.5%

## O=C(O[C@@H]1Cc2c(O)cc(O)cc2O[C@@H]1c1cc(O)c(O)c(O)c1)c1cc(O)c(O)c(O)c1 [(−)-EGCG, (−)-epigallocatechin-3-gallate, reference compound]
VA-13 cells; 12 hours
  levels of p27 protein: significantly increased levels of p27 protein
VA-13 cells; 36 hours
  levels of p27 protein: accumulated p27 levels
Jurkat T cells; 10 μM, 12 hour treatment
  accumulation of IκB-α levels: 2.1 fold
  accumulation of p27 levels: 2.7 fold
Jurkat T cells; treatment up to 12 hour
  increase of IκB-α protein levels: up to 6 fold
  increase of p27 levels: 17 fold
LNCaP cells
  inhibition of colony formation: 99.0%

## O=C(OC1Cc2c(O)cc(O)cc2OC1c1cc(O)c(O)c(O)c1)c1cc(O)c(O)c(O)c1 (single isomer, unassigned; (+)) [(+)-EGCG]
VA-13 cells; 12 hours
  levels of p27 protein: significantly increased levels of p27 protein
Jurkat T cells; 10 μM, 12 hour treatment
  accumulation of IκB-α levels: 3.1 fold
  accumulation of p27 levels: 3.5 fold
  increase in IκB-α levels as compared to (−)-EGCG: 47%
  increase in p27 levels as compared to (−)-EGCG: ~30%
LNCaP cells
  inhibition of colony formation: 99.5%

## O=C(N[C@@H]1Cc2c(O)cc(O)cc2O[C@@H]1c1cc(O)c(O)c(O)c1)c1cc(O)c(O)c(O)c1 [(−)-EGCG-amide, (−)-[2R,3R]-N-[5,7-Dihydroxy-2-(3,4,5-trihydroxyphenyl)-chroman-3-yl]-3,4,5-trihydroxybenzamide]
VA-13 cells; 12 hours
  levels of p27 protein: significantly increased levels of p27 protein
Jurkat T cells; treatment up to 12 hour
  increase of IκB-α protein levels: ≤ 8 fold
